According to PubChem BioAssay AID1963827 (Molecular Pharmacology Branch, DTP, NCI, 2024):

Test system: 994946-033-R-J1-PDC complex spheroid viability
Assay: Anticancer human tumor 994946-033-R-J1-PDC patient-derived melanoma cell line growth inhibition [POLQ]
Details: for IC50: curve of first compound; for viability, T/C: stronger effect = lower value; active = viability on the fitted dose curve at most 10% of control; inactive = the rest
Outline: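 PDC + HUVEC + MSC complex spheroids; POLQ inhibitors ± partner drugs; top conc. at/near clinical Cmax, else 10 microM (SN-38 1 microM), half-log dilutions; 37 degrees C, 5% CO2.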

[1] = second compound 0.0316 µM, first compound 0.0316 µM
[2] = second compound 0.0316 µM, first compound 0.1 µM
[3] = second compound 0.0316 µM, first compound 0.316 µM
[4] = second compound 0.0316 µM, first compound 1 µM
[5] = second compound 0.0316 µM, first compound 3.16 µM
[6] = second compound 0.0316 µM, first compound 10 µM
[7] = second compound 0.1 µM, first compound 0.0316 µM
[8] = second compound 0.1 µM, first compound 0.1 µM
[9] = second compound 0.1 µM, first compound 0.316 µM
[10] = second compound 0.1 µM, first compound 1 µM
[11] = second compound 0.1 µM, first compound 3.16 µM
[12] = second compound 0.1 µM, first compound 10 µM
[13] = second compound 0.316 µM, first compound 0.0316 µM
[14] = second compound 0.316 µM, first compound 0.1 µM
[15] = second compound 0.316 µM, first compound 0.316 µM
[16] = second compound 0.316 µM, first compound 1 µM
[17] = second compound 0.316 µM, first compound 3.16 µM
[18] = second compound 0.316 µM, first compound 10 µM
[19] = second compound 1 µM, first compound 0.0316 µM
[20] = second compound 1 µM, first compound 0.1 µM
[21] = second compound 1 µM, first compound 0.316 µM
[22] = second compound 1 µM, first compound 1 µM
[23] = second compound 1 µM, first compound 3.16 µM
[24] = second compound 1 µM, first compound 10 µM
[25] = second compound 3.16 µM, first compound 0.0316 µM
[26] = second compound 3.16 µM, first compound 0.1 µM
[27] = second compound 3.16 µM, first compound 0.316 µM
[28] = second compound 3.16 µM, first compound 1 µM
[29] = second compound 3.16 µM, first compound 3.16 µM
[30] = second compound 3.16 µM, first compound 10 µM
[31] = second compound 10 µM, first compound 0.0316 µM
[32] = second compound 10 µM, first compound 0.1 µM
[33] = second compound 10 µM, first compound 0.316 µM
[34] = second compound 10 µM, first compound 1 µM
[35] = second compound 10 µM, first compound 3.16 µM
[36] = second compound 10 µM, first compound 10 µM
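Also: spheroids exposed to drugs for 7 days.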
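For viability, T/C in this document: 100% = DMSO vehicle treated spheroids.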

COc1ccc([C@@H](O)c2cc(-c3ncnc4cc(N5CCOCC5)ccc34)c(F)cc2Cl)nn1 + Cc1cccc(N(C)C(=O)C2C(O)CCN2c2nc(C)cc(C(F)(F)F)c2C#N)c1
2250 nM: IC50 (second compound 0.316 µM)
6200 nM: IC50 (second compound 10 µM)
6160 nM: IC50 (second compound 1 µM)
2650 nM: IC50 (second compound 3.16 µM)
4060 nM: IC50 (second compound 0.0316 µM)
inactive: viability, T/C [1] 108% | viability, T/C [2] 95.1% | viability, T/C [3] 106% | viability, T/C [4] 64.1% | viability, T/C [5] 60.7% | viability, T/C [6] 32.5% | viability, T/C [7] 90.9% | viability, T/C [8] 105% | viability, T/C [9] 93.3% | viability, T/C [10] 78.5% | viability, T/C [11] 71.6% | viability, T/C [12] 38.4% | viability, T/C [13] 118% | viability, T/C [14] 94.1% | viability, T/C [15] 103% | viability, T/C [16] 60.4% | viability, T/C [17] 45.6% | viability, T/C [18] 45.1% | viability, T/C [19] 104% | viability, T/C [20] 96.6% | viability, T/C [21] 82% | viability, T/C [22] 105% | viability, T/C [23] 60.9% | viability, T/C [24] 42.1% | viability, T/C [25] 115% | viability, T/C [26] 125% | viability, T/C [27] 101% | viability, T/C [28] 60.5% | viability, T/C [29] 56.8% | viability, T/C [30] 38.6% | viability, T/C [31] 74.9% | viability, T/C [32] 101% | viability, T/C [33] 60.3% | viability, T/C [34] 76.6% | viability, T/C [35] 62.7% | viability, T/C [36] 41.1%
6540 nM: IC50 (second compound 0.1 µM)

CCc1cc2c(N3CCc4c(cc(Cn5ccnc5)cc4-c4cn(C)nc4C(F)(F)F)C3=O)cc(C)nc2c(OC)n1 + Nc1ccc(C#CCN(C(=O)Cc2ncc(C(F)(F)F)cc2C(F)(F)F)c2ccc(F)cc2)nn1
> 10000 nM: IC50 (second compound 0.1 µM) | IC50 (second compound 0.316 µM) | IC50 (second compound 1 µM) | IC50 (second compound 3.16 µM) | IC50 (second compound 10 µM)
8520 nM: IC50 (second compound 0.0316 µM)
inactive: viability, T/C [1] 81.9% | viability, T/C [2] 107% | viability, T/C [3] 72.6% | viability, T/C [4] 68.3% | viability, T/C [5] 103% | viability, T/C [6] 44% | viability, T/C [7] 78.7% | viability, T/C [8] 102% | viability, T/C [9] 94.4% | viability, T/C [10] 93% | viability, T/C [11] 71.2% | viability, T/C [12] 54.3% | viability, T/C [13] 73% | viability, T/C [14] 79.8% | viability, T/C [15] 75.5% | viability, T/C [16] 87% | viability, T/C [17] 64% | viability, T/C [18] 89.1% | viability, T/C [19] 98.6% | viability, T/C [20] 71.5% | viability, T/C [21] 89.5% | viability, T/C [22] 51.8% | viability, T/C [23] 78.5% | viability, T/C [24] 72.2% | viability, T/C [25] 93.4% | viability, T/C [26] 84.3% | viability, T/C [27] 81.9% | viability, T/C [28] 65.7% | viability, T/C [29] 86.5% | viability, T/C [30] 65.5% | viability, T/C [31] 107% | viability, T/C [32] 96.1% | viability, T/C [33] 106% | viability, T/C [34] 89.2% | viability, T/C [35] 69.9% | viability, T/C [36] 49.9%

C=CCn1c(=O)c2cnc(Nc3ccc(N4CCN(C)CC4)cc3)nc2n1-c1cccc(C(C)(C)O)n1 + Nc1ccc(C#CCN(C(=O)Cc2ncc(C(F)(F)F)cc2C(F)(F)F)c2ccc(F)cc2)nn1
444 nM: IC50 (second compound 0.1 µM)
397 nM: IC50 (second compound 0.316 µM)
inactive: viability, T/C (second compound 0.0316 µM, first compound 0.00316 µM) 70.3% | viability, T/C (second compound 0.0316 µM, first compound 0.01 µM) 122% | viability, T/C [1] 80% | viability, T/C [2] 95.6% | viability, T/C [3] 91.8% | viability, T/C [4] 42.4% | viability, T/C (second compound 0.1 µM, first compound 0.00316 µM) 81% | viability, T/C (second compound 0.1 µM, first compound 0.01 µM) 107% | viability, T/C [7] 97.8% | viability, T/C [8] 103% | viability, T/C [9] 59.2% | viability, T/C [10] 28% | viability, T/C (second compound 0.316 µM, first compound 0.00316 µM) 101% | viability, T/C (second compound 0.316 µM, first compound 0.01 µM) 124% | viability, T/C [13] 105% | viability, T/C [14] 81.7% | viability, T/C [15] 60.2% | viability, T/C [16] 20.6% | viability, T/C (second compound 1 µM, first compound 0.00316 µM) 123% | viability, T/C (second compound 1 µM, first compound 0.01 µM) 100% | viability, T/C [19] 147% | viability, T/C [20] 109% | viability, T/C [21] 100% | viability, T/C [22] 36.2% | viability, T/C (second compound 3.16 µM, first compound 0.00316 µM) 109% | viability, T/C (second compound 3.16 µM, first compound 0.01 µM) 105% | viability, T/C [25] 120% | viability, T/C [26] 85% | viability, T/C [27] 84.9% | viability, T/C [28] 36.4% | viability, T/C (second compound 10 µM, first compound 0.00316 µM) 106% | viability, T/C (second compound 10 µM, first compound 0.01 µM) 82.5% | viability, T/C [31] 94.8% | viability, T/C [32] 95.4% | viability, T/C [33] 67.4% | viability, T/C [34] 39.1%
780 nM: IC50 (second compound 1 µM)
837 nM: IC50 (second compound 0.0316 µM)
712 nM: IC50 (second compound 3.16 µM)
643 nM: IC50 (second compound 10 µM)
